Assay results as given in patent US20060069132A1, “Azolecarboxamide herbicides” (priority 2004, published 2006).

Assays:
large crabgrass = test: Test A pre-/postemergence herbicide test; assay type: in vivo, Digitaria sanguinalis
Outline: (§1)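 Pre: seeded sandy loam, directed soil spray, compound in non-phytotoxic solvent + surfactant. Post: 1–2-leaf plants (2–10 cm), sprayed to runoff. Greenhouse ~10 d; visual injury vs untreated, 0–100 scale.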

velvetleaf = test: Test B pre-/postemergence herbicide test; assay type: in vivo, Abutilon theophrasti; settings: for Velvetleaf plant response rating: postemergence, visual rating
Outline: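 Flooded paddy rice and barnyardgrass were treated at the 2-leaf stage; upland plantings received compound either on sown seed or on 1- to 4-leaf seedlings. All were kept 13–15 days in a greenhouse and scored visually, 0–100, relative to untreated plants.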

cocklebur = test: Test C pre-/postemergence herbicide test; assay type: in vivo, Xanthium strumarium; settings: for Plant response rating (0 = no effect, 100 = complete control), Cocklebur: 62 g ai/ha; for Cocklebur plant response rating: 500 g ai/ha
Outline: (§2)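 Visual injury scores run from 0 (no effect) to 100 (complete control), assessed relative to untreated controls 12 to 14 days after treatment in the greenhouse. Chemicals were formulated in a non-phytotoxic solvent mixture with surfactant and applied to soil after planting or to emerged plants at the 1- to 4-leaf stage.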

soybean = test: Test C pre-/postemergence herbicide test; assay type: in vivo, Glycine max; settings: for Plant response rating (0 = no effect, 100 = complete control), Soybean: 62 g ai/ha; for Soybean plant response rating: 500 g ai/ha
Outline: as §2

barnyardgrass = test: Test A pre-/postemergence herbicide test; assay type: in vivo, Echinochloa crus-galli
Outline: as §1

redroot pigweed = test: Test A pre-/postemergence herbicide test; assay type: in vivo, Amaranthus retroflexus
Outline: as §1

eastern black nightshade = test: Test C pre-/postemergence herbicide test; assay type: in vivo, Solanum ptycanthum; settings: for Plant response rating (0 = no effect, 100 = complete control), Nightshade: 62 g ai/ha; for Nightshade plant response rating: Preemergence, 500 g ai/ha, scale 0 to 100, 0 no effect, 100 complete control
Outline: as §2

johnsongrass = test: Test C pre-/postemergence herbicide test; assay type: in vivo, Sorghum halepense; settings: for Johnsongrass plant response rating: 500 g ai/ha
Outline: as §2

bermudagrass = test: Test C pre-/postemergence herbicide test; assay type: in vivo, Cynodon dactylon; settings: for Plant response rating (0 = no effect, 100 = complete control), Bermudagrass: 62 g ai/ha; for Bermudagrass plant response rating: 500 g ai/ha
Outline: as §2

[1] = Postemergence, 500 g ai/ha, 0 to 100 scale, 0 no effect, 100 complete control
[2] = Postemergence, 2000 g ai/ha, 0 to 100 scale, 0 no effect, 100 complete control
[3] = Preemergence, 500 g ai/ha, visual rating, 0 to 100 scale (0 no effect, 100 complete control)
[4] = Preemergence, 2000 g ai/ha, 0 to 100 scale, 0 no effect, 100 complete control
[5] = 125 g ai/ha, scale 0 (no effect) to 100 (complete control)
[6] = preemergence, 125 g ai/ha, 0 to 100 scale, 0 is no effect, 100 is complete control
[7] = 125 g ai/ha, scale 0 (no effect) to 100 (complete control), visual, 12 to 14 days, preemergence
[8] = 250 g ai/ha, scale 0 to 100 (0 no effect, 100 complete control), visual, 12 to 14 days, preemergence
[9] = Preemergence, scale 0 to 100, 0 no effect, 100 complete control
[10] = Preemergence, 2000 g ai/ha, visual rating, 0 to 100 scale (0 no effect, 100 complete control)
[11] = Postemergence, 250 g ai/ha, scale 0 to 100, 0 no effect, 100 complete control
[12] = postemergence, 125 g ai/ha, scale 0 to 100

CCOC(=O)c1cccc(NC(=O)c2cc(C(C)(C)C)nn2CC)c1C [Compound 88]
Crabgrass, Large plant response rating (large crabgrass; [1]): 85
Plant response rating, Crabgrass, Large (large crabgrass; [2]): 95
Crabgrass, Large plant response rating (large crabgrass; [3]): 45
Crabgrass, Large plant response rating (large crabgrass; [4]): 100
Plant response rating, Velvetleaf (velvetleaf; Postemergence, 500 g ai/ha, visual rating after 13 to 15 days, scale 0 (no effect) to 100 (complete control)): 70
Velvetleaf plant response rating (velvetleaf; [5]): 30
Plant response rating, Velvetleaf (velvetleaf; [6]): 40
Plant response rating (0 = no effect, 100 = complete control), Cocklebur (cocklebur; preemergence): 0
Plant response rating, Cocklebur (cocklebur; [7]): 0
Plant response rating, Cocklebur (cocklebur; [8]): 0
Cocklebur plant response rating (cocklebur; [9]): 0
Plant response rating (0 = no effect, 100 = complete control), Soybean (soybean; preemergence): 0
Plant response rating, Soybean (soybean; [7]): 0
Soybean plant response rating (soybean; [9]): 10
Barnyardgrass plant response rating (barnyardgrass; [1]): 85
Plant response rating, Barnyardgrass (barnyardgrass; [2]): 100
Barnyardgrass plant response rating (barnyardgrass; [3]): 75
Barnyardgrass plant response rating (barnyardgrass; [4]): 90
Pigweed plant response rating (redroot pigweed; [1]): 90
Plant response rating, Pigweed (redroot pigweed; [2]): 100
Pigweed plant response rating (redroot pigweed; [3]): 90
Pigweed plant response rating (redroot pigweed; [4]): 100
Plant response rating (0 = no effect, 100 = complete control), Nightshade (eastern black nightshade; preemergence): 40
Plant response rating, Nightshade (eastern black nightshade; [7]): 90
Nightshade plant response rating (eastern black nightshade): 95
Plant response rating (0 = no effect, 100 = complete control), Johnsongrass (johnsongrass; 62 g ai/ha, preemergence): 0
Plant response rating, Johnsongrass (johnsongrass; [7]): 20
Johnsongrass plant response rating (johnsongrass; [9]): 70
Plant response rating (0 = no effect, 100 = complete control), Bermudagrass (bermudagrass; preemergence): 90
Plant response rating, Bermudagrass (bermudagrass; [7]): 95
Plant response rating, Bermudagrass (bermudagrass; [8]): 95
Bermudagrass plant response rating (bermudagrass; [9]): 95

CCn1nc(C(C)(C)C)cc1C(=O)Nc1cccc(SC(F)(F)F)c1 [Compound 130]
Crabgrass, Large plant response rating (large crabgrass; [1]): 20
Plant response rating, Crabgrass, Large (large crabgrass; [2]): 20
Crabgrass, Large plant response rating (large crabgrass; [3]): 45
Crabgrass, Large plant response rating (large crabgrass; [10]): 60
Plant response rating, Velvetleaf (velvetleaf; 500 g ai/ha, visual rating 0-100, 0 no effect, 100 complete control, preemergence): 90
Velvetleaf plant response rating (velvetleaf; [5]): 70
Velvetleaf plant response rating (velvetleaf; 500 g ai/ha, scale 0 (no effect) to 100 (complete control)): 70
Plant response rating, Velvetleaf (velvetleaf; [6]): 10
Plant response rating (0 = no effect, 100 = complete control), Cocklebur (cocklebur; preemergence): 0
Plant response rating, Cocklebur (cocklebur; [8]): 70
Cocklebur plant response rating (cocklebur; Postemergence, scale 0 to 100): 100
Plant response rating, Cocklebur (cocklebur; [11]): 90
Cocklebur plant response rating (cocklebur; [9]): 100
Plant response rating, Cocklebur (cocklebur; [12]): 30
Plant response rating (0 = no effect, 100 = complete control), Soybean (soybean; preemergence): 0
Plant response rating, Soybean (soybean; [7]): 0
Soybean plant response rating (soybean; Postemergence, scale 0 to 100): 70
Plant response rating, Soybean (soybean; [11]): 40
Soybean plant response rating (soybean; [9]): 10
Plant response rating, Soybean (soybean; [12]): 40
Barnyardgrass plant response rating (barnyardgrass; [1]): 20
Plant response rating, Barnyardgrass (barnyardgrass; [2]): 20
Barnyardgrass plant response rating (barnyardgrass; [3]): 40
Barnyardgrass plant response rating (barnyardgrass; [10]): 30
Pigweed plant response rating (redroot pigweed; [1]): 50
Plant response rating, Pigweed (redroot pigweed; [2]): 65
Pigweed plant response rating (redroot pigweed; [10]): 65
Pigweed plant response rating (redroot pigweed; preemergence, 500 g ai/ha, visual injury, 0 to 100 scale (0 no effect, 100 complete control)): 35
Plant response rating (0 = no effect, 100 = complete control), Nightshade (eastern black nightshade; preemergence): 30
Nightshade plant response rating (eastern black nightshade): 60
Johnsongrass plant response rating (johnsongrass; Postemergence, scale 0 to 100): 40
Plant response rating, Johnsongrass (johnsongrass; [11]): 30
Johnsongrass plant response rating (johnsongrass; [9]): 80
Plant response rating, Johnsongrass (johnsongrass; [12]): 10
Plant response rating (0 = no effect, 100 = complete control), Bermudagrass (bermudagrass; preemergence): 60
Plant response rating, Bermudagrass (bermudagrass; [7]): 90
Plant response rating, Bermudagrass (bermudagrass; [8]): 100
Bermudagrass plant response rating (bermudagrass; Postemergence, scale 0 to 100): 90
Plant response rating, Bermudagrass (bermudagrass; [11]): 90
Bermudagrass plant response rating (bermudagrass; [9]): 100
Plant response rating, Bermudagrass (bermudagrass; [12]): 85
